Measured values published in patent US20130079349A1 (JANSSEN PHARMACEUTICA NV, priority 2010, published 2013).

Key:
[1] = system: Abeta total; assay: Cellular αLisa assay in SKNBE2 cells, Abeta total; assay type: cell-based; conditions: human neuroblastoma SKNBE2 expressing hAPP695, incubated for 18 hours; for IC50: Homo sapiens, SKNBE2, 18 h, read-out: Cellular αlisa assay in SKNBE2 cells Aβtotal pIC50 (converted)
Procedure: (§1) In two αLisa assays the levels of Abeta total and Abeta 1-42 produced and secreted into the medium of human neuroblastoma SKNBE2 cells are quantified. The assay is based on the human neuroblastoma SKNBE2 expressing the wild type Amyloid Precursor Protein (hAPP695). The compounds are diluted and added to these cells, incubated for 18 hours and then measurements of Abeta 1-42 and Abeta total are taken. Abeta total and Abeta 1-42 are measured by sandwich αLisa. αLisa is a sandwich assay using biotinylated antibody AbN/25 attached to streptavidin coated beads and antibody Ab4G8 or cAb42/26 conjugated acceptor beads for the detection of Abeta total and Abeta 1-42 respectively. In the presence of Abeta total or Abeta 1-42, the beads come into close proximity. The excitation of the donor beads provokes the release of singlet oxygen molecules that trigger a cascade of energy transfer in the acceptor beads, resulting in light emission. Light emission is measured after 1 hour incubation (excitation at […] and emission at 615 nm).
(§2) A best-fit curve is fitted by a minimum sum of squares method to the plot of %Controlmin versus compound concentration.

[2] = system: Abeta 1-42; assay: Cellular αLisa assay in SKNBE2 cells, Abeta 1-42; assay type: cell-based; conditions: human neuroblastoma SKNBE2 expressing hAPP695, incubated for 18 hours; for IC50: Homo sapiens, SKNBE2, 18 h, read-out: Cellular αlisa assay in SKNBE2 cells Aβ42 pIC50 (converted)
Procedure: as §1, §2

[3] = target: BACE1 (Homo sapiens, UniProt P56817); assay: Biochemical FRET based assay; conditions: recombinant BACE1 1 μg/ml, 120 minutes at room temperature, pH 5.0; read-out: Biochemical FRET based assay pIC50 (converted)
Excerpt: This assay is a Fluorescence Resonance Energy Transfer Assay (FRET) based assay. The substrate for this assay is an APP derived 13 amino acids peptide that contains the ‘Swedish’ Lys-Met/Asn-Leu mutation of the amyloid precursor protein (APP) beta-secretase cleavage site. This substrate also contains two fluorophores: (7-methoxycoumarin-4-yl) acetic acid (Mca) is a fluorescent donor with excitation wavelength at 320 nm and emission at 405 nm and 2,4-Dinitrophenyl (Dnp) is a proprietary quencher acceptor. […] Upon cleavage by BACE1, the fluorophore Mca is separated from the quenching group Dnp, restoring the full fluorescence yield of the donor. The increase in fluorescence is linearly related to the rate of proteolysis.
Briefly in a 384-well format recombinant BACE1 protein in a final concentration of 1 μg/ml is incubated for 120 minutes at room temperature with 10 μm substrate in incubation buffer (40 mM Citrate buffer pH 5.0, 0.04% PEG, 4% DMSO) in the absence or presence of compound. Next the amount of proteolysis is directly measured by fluorescence measurement at T=0 and T=120 (excitation at 320 nm and emission at 405 nm). Results are expressed in RFU (relative fluorescence units), as difference between T120 and T0.

BACE1, sequence (P56817 46-501): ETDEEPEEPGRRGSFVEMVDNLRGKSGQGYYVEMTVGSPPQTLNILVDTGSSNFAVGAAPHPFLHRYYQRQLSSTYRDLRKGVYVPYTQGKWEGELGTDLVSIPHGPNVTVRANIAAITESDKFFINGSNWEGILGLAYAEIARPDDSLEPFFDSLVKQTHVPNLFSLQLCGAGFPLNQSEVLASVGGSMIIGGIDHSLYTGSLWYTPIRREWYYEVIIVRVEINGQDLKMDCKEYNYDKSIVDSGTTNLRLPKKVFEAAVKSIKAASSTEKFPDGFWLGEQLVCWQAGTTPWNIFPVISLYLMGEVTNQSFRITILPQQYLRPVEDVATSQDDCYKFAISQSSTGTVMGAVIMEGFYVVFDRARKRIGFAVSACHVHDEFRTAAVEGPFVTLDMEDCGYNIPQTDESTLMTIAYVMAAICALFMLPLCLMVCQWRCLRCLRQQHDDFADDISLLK

Work on `CN1CC(N)=NC(C)(c2cccc(NC(=O)c3ccc(Cl)cn3)c2)C1=O` (racemic) [Compound 3, rac-5-chloro-pyridine-2-carboxylic acid [3-(6-amino-2,4-dimethyl-3-oxo-2,3,4,5-tetrahydro-pyrazin-2-yl)-phenyl]-amide] yielded an IC50 [1] of 0.0275 µM and an IC50 [2] of 0.0646 µM.
In the case of `CCN1CC(N)=NC(C)(c2cc(-c3cncc(OC)c3)c(F)cc2F)C1=O` (racemic) [Compound 9, rac-5-amino-3-[2,4-difluoro-5-(5-methoxy-pyridin-3-yl)-phenyl]-1-ethyl-3-methyl-3,6-dihydro-1H-pyrazin-2-one], the IC50 [3] was over 30.2 µM, the IC50 [1] was 9.12 µM and the melting point was 81.8 °C. For the same compound, the IC50 [2] was over 10 µM.
In the case of `CN1CC(N)=NC(C)(c2cccc(NC(=O)c3ccc(Cl)cn3)c2)C1=O` (single isomer, unassigned) [Compound 5, (R*)-5-chloro-pyridine-2-carboxylic acid [3-(6-amino-2,4-dimethyl-3-oxo-2,3,4,5-tetrahydro-pyrazin-2-yl)-phenyl]-amide], the “Cellular αlisa assay in SKNBE2 cells Aβtotal pIC50” value [1] was 7.43 and the “Cellular αlisa assay in SKNBE2 cells Aβ42 pIC50” value [2] was 7.44.
With `CN1CC(N)=NC(C)(c2cccc(NC(=O)c3ccc(Cl)cn3)c2)C1=O` (single isomer, unassigned) [Compound 4, (S*)-5-chloro-pyridine-2-carboxylic acid [3-(6-amino-2,4-dimethyl-3-oxo-2,3,4,5-tetrahydro-pyrazin-2-yl)-phenyl]-amide] the “Cellular αlisa assay in SKNBE2 cells Aβtotal pIC50” value [1] was under 5 and the “Cellular αlisa assay in SKNBE2 cells Aβ42 pIC50” value [2] was under 5.
`CN1CC(N)=NC(C)(c2cccc(-c3cncnc3)c2)C1=O` (racemic) [Compound 1, rac-5-amino-1,3-dimethyl-3-(3-pyrimidin-5-yl-phenyl)-3,6-dihydro-1H-pyrazin-2-one] showed an IC50 [3] of 20.4 µM, an IC50 [1] of 3.89 µM and a melting point of 223.4 °C. It also gave an IC50 [2] of 4.47 µM.
`Cc1cnc(C(=O)Nc2cccc(C3(C)N=C(N)CN(C)C3=O)c2)cn1` (racemic) [Compound 6, rac-5-methyl-pyrazine-2-carboxylic acid [3-(6-amino-2,4-dimethyl-3-oxo-2,3,4,5-tetrahydro-pyrazin-2-yl)-phenyl]-amide] showed an IC50 [3] of 7.08 µM, an IC50 [1] of 1.15 µM and an IC50 [2] of 1.26 µM.
With `COc1cncc(-c2cccc(C3(C)N=C(N)CN(C)C3=O)c2)c1` (racemic) [Compound 2, rac-5-amino-3-[3-(5-methoxy-pyridin-3-yl)-phenyl]-1,3-dimethyl-3,6-dihydro-1H-pyrazin-2-one] the IC50 [3] was 10.5 µM, the IC50 [1] was 1.51 µM and the IC50 [2] was 1.66 µM.
